Measured values from US7625897B2, “Non-nucleoside reverse transcriptase inhibitors” (Roche Palo Alto LLC, priority 2005, dated 2009).
Like-named read-outs stand apart in the source and are kept apart here.

Legend:
HIV-1 RT = HIV-1 RT (Human immunodeficiency virus type 1 group M subtype B, UniProt P03366); experiment: HIV Reverse Transcriptase Assay: Inhibitor IC50 determination; format: biochemical; conditions: purified recombinant enzyme, poly(rA)/oligo(dT)16 template-primer, read-out: HIV-RT IC50 RT
Protocol: HIV Reverse Transcriptase Assay: Inhibitor IC50 determination
HIV-1 RT assay was carried out in 96-well Millipore MultiScreen MADVNOB50 plates using purified recombinant enzyme and a poly(rA)/oligo(dT)16 template-primer in a total volume of 50 μL. The assay constituents were 50 mM Tris/HCl, 50 mM NaCl, 1 mM EDTA, 6 mM MgCl2, 5 μM dTTP, 0.15 μCi [^3H] dTTP, 5 μg/ml poly (rA) pre annealed to 2.5 μg/ml oligo (dT)16 and a range of inhibitor concentrations in a final concentration of 10% DMSO. Reactions were initiated by adding 4 nM HIV-1 RT and after incubation at 37° C. for 30 min, they were stopped by the addition of 50 μl ice cold 20% TCA and allowed to precipitate at 4° C. for 30 min. The precipitates were collected by applying vacuum to the plate and sequentially washing with 3×200 μl of 10% TCA and 2×200 μl 70% ethanol. Finally, the plates were dried and radioactivity counted in a Packard TopCounter after the addition of 25 μl scintillation fluid per well. IC50's were calculated by plotting % inhibition versus log10 inhibitor concentrations.

CC1CC(Cc2ccc(Cl)c(Oc3cc(Cl)cc(C#N)c3)c2F)=NNC1=O (stereo in doubt) [Compound I-22, 3-chloro-5-[6-chloro-2-fluoro-3-((S)-5-methyl-6-oxo-1,4,5,6-tetrahydro-pyridazin-3-ylmethyl)-phenoxy]-benzonitrile]
melting point: 156.5 to 157.2 °C
IC50 (HIV-1 RT; TABLE I): 17.7 nM

CC1CC(Cc2ccc(Cl)c(Oc3cc(Cl)cc(Br)c3)c2F)=NNC1=O (stereo in doubt) [Compound I-23, (S)-6-[3-(3-Bromo-5-chloro-phenoxy)-4-chloro-2-fluoro-benzyl]-4-methyl-4,5-dihydro-2H-pyridazin-3-one]
melting point: 148.2 to 151 °C
IC50 (HIV-1 RT; TABLE I): 14.3 nM

C[C@@H]1NC(Cc2ccc(Cl)c(Oc3cccc(Br)c3)c2)=NNC1=O [Compound I-1, (S)-3-[3-(3-Bromo-phenoxy)-4-chloro-benzyl]-5-methyl-4,5-dihydro-1H-[1,2,4]triazin-6-one]
IC50 (HIV-1 RT; TABLE I): 4520 nM

C[C@@H]1NC(Cc2ccc(Cl)c(Oc3cc(Br)cc(Br)c3)c2F)=NNC1=O [Compound I-2, (S)-3-[4-Chloro-3-(3,5-dibromo-phenoxy)-2-fluoro-benzyl]-5-methyl4,5-dihydro-1H-[1,2,4]triazin-6-one]
melting point: 88 to 91.5 °C
IC50 (HIV-1 RT; TABLE I): 165 nM

C[C@H]1NC(Cc2ccc(Cl)c(Oc3cc(Br)cc(Br)c3)c2F)=NNC1=O [Compound I-3, (R)-3-[4-Chloro-3-(3,5-dibromo-phenoxy)-2-fluoro-benzyl]-5-methyl-4,5-dihydro-1H-[1,2,4]triazin-6-one]
melting point: 75.2 to 79.1 °C
IC50 (HIV-1 RT; TABLE I): 10.7 nM

CC1OC(Cc2ccc(Cl)c(Oc3cccc(Br)c3)c2)=NNC1=O (centres unmarked) [Compound I-4, 2-[3-(3-Bromo-phenoxy)-4-chloro-benzyl]-6-methyl-4H-[1,3,4]oxadiazin-5-one]
IC50 (HIV-1 RT; TABLE I): 51.5 nM

CC1OC(Cc2ccc(Cl)c(Oc3cc(Cl)cc(Br)c3)c2F)=NNC1=O (centres unmarked) [Compound I-6, 2-[3-(3-Bromo-5-chloro-phenoxy)-4-chloro-2-fluoro-benzyl]-6-methyl-4H-[1,3,4]oxadiazin-5-one]
IC50 (HIV-1 RT; TABLE I): 24.7 nM

CC1OC(Cc2ccc(Cl)c(Oc3cc(Br)cc(Br)c3)c2F)=NNC1=O (centres unmarked) [Compound I-7, 2-[4-Chloro-3-(3,5-dibromo-phenoxy)-2-fluoro-benzyl]-6-methyl-4H-[1,3,4]oxadiazin-5-one]
melting point: 174.2 to 176.1 °C
IC50 (HIV-1 RT; TABLE I): 24.5 nM

CC1OC(Cc2ccc(Cl)c(Oc3cc(Cl)cc(C#N)c3)c2F)=NNC1=O (centres unmarked) [Compound I-8, 3-Chloro-5-[6-chloro-2-fluoro-3-(6-methyl-5-oxo-5,6-dihydro-4H-[1,3,4]oxadiazin-2-ylmethyl)-phenoxy]-benzonitrile]
IC50 (HIV-1 RT; TABLE I): 13.6 nM

CC1OC(Cc2ccc(Cl)c(Oc3cc(C#N)cc(C#N)c3)c2F)=NNC1=O (centres unmarked) [Compound I-9, 5-[6-chloro-2-fluoro-3-(6-methyl-5-oxo-5,6-dihydro-4H-[1,3,4]oxadiazin-2-ylmethyl)-phenoxy]-isophthalonitrile]
melting point: 60.9 to 67.7 °C
IC50 (HIV-1 RT; TABLE I): 40.3 nM

O=C1NN=C(Cc2ccc(Cl)c(Oc3cc(Br)cc(Br)c3)c2F)NC12CC2 [Compound I-10, 5-[4-Chloro-3-(3,5-dibromo-phenoxy)-2-fluoro-benzyl]-4,6,7-triaza-spiro[2.5]oct-5-en-8-one]
melting point: 90 to 95 °C
IC50 (HIV-1 RT; TABLE I): 66 nM

CC1(C)OC(Cc2ccc(Cl)c(Oc3cccc(Br)c3)c2)=NNC1=O [Compound I-11, 2-[3-(3-Bromo-phenoxy)4-chloro-benzyl]-6,6-dimethyl-4H-[1,3,4]oxadiazin-5-one]
IC50 (HIV-1 RT; TABLE I): > 10000 nM

CCC1OC(Cc2ccc(Cl)c(Oc3cccc(Br)c3)c2)=NNC1=O (centres unmarked) [Compound I-12, 2-[3-(3-Bromo-phenoxy)-4-chloro-benzyl]-6-ethyl-4H-[1,3,4]oxadiazin-5-one]
IC50 (HIV-1 RT; TABLE I): 212 nM

CC1(C)OC(Cc2ccc(Cl)c(Oc3cccc(C#N)c3)c2)=NNC1=O [Compound I-13, 3-[2-Chloro-5-(6,6-dimethyl-5-oxo-5,6-dihydro-4H-[1,3,4]oxadiazin-2-ylmethyl)-phenoxy]-benzonitrile]
melting point: 94.1 to 95.3 °C
IC50 (HIV-1 RT; TABLE I): 9490 nM

CCC1OC(Cc2ccc(Cl)c(Oc3cccc(C#N)c3)c2)=NNC1=O (centres unmarked) [Compound I-14, 3-[2-Chloro-5-(6-ethyl-5-oxo-5,6-dihydro4H-[1,3,4]oxadiazin-2-ylmethyl)-phenoxy]-benzonitrile]
IC50 (HIV-1 RT; TABLE I): 128 nM

C[C@H]1NC(Cc2ccc(Cl)c(Oc3cc(C#N)cc(C(F)F)c3)c2F)=NNC1=O [Compound I-16, 3-[6-Chloro-2-fluoro-3-((R)-5-methyl-6-oxo-1,4,5,6-tetrahydro-[1,2,4]triazin-3-ylmethyl)-phenoxy]-5-difluoromethyl-benzonitrile]
IC50 (HIV-1 RT; TABLE I): 15.3 nM

CC[C@H]1NC(Cc2ccc(Cl)c(Oc3cc(Cl)cc(C#N)c3)c2F)=NNC1=O [Compound I-17, 3-Chloro-5-[6-chloro-3-((R)-5-ethyl-6-oxo-1,4,5,6-tetrahydro-[1,2,4]triazin-3-ylmethyl)-2-fluoro-phenoxy]-benzonitrile]
IC50 (HIV-1 RT; TABLE I): 13 nM

C[C@@H]1NC(Cc2ccc(Cl)c(Oc3cc(Cl)cc(C#N)c3)c2F)=NNC1=O [Compound I-18, 3-Chloro-5-[6-chloro-2-fluoro-3-(5-methyl-6-oxo-1,4,5,6-tetrahydro-[1,2,4]triazin-3-ylmethyl)-phenoxy]-benzonitrile]
IC50 (HIV-1 RT; TABLE I): 11.9 nM

Cc1ccc(CC2=NNC(=O)[C@@H](C)N2)c(F)c1Oc1cc(C#N)cc(C(F)F)c1 [Compound I-19, 3-Difluoromethyl-5-[2-fluoro-6-methyl-3-((R)-5-methyl-6-oxo-1,4,5,6-tetrahydro-[1,2,4]triazin-3-ylmethyl)-phenoxy]-benzonitrile]
IC50 (HIV-1 RT; TABLE I): 18 nM

C[C@H]1CC(Cc2ccc(Cl)c(Oc3cccc(Br)c3)c2)=NNC1=O [Compound I-20, (S)-6-[3-(3-Bromo-phenoxy)4-chloro-benzyl]-4-methyl-4,5-dihydro-2H-pyridazin-3-one]
IC50 (HIV-1 RT; TABLE I): 65.4 nM

C[C@H]1CC(Cc2ccc(Cl)c(Oc3cccc(C#N)c3)c2)=NNC1=O [Compound I-21, 3-[2-chloro-5-((S)-5-methyl-6-oxo-1,4,5,6-tetrahydro-pyridazin-3-ylmethyl)-phenoxy]-benzonitrile]
IC50 (HIV-1 RT; TABLE I): 46.9 nM

O=C1CCC(Cc2ccc(Cl)c(Oc3ccccc3)c2)=NN1 [Compound I-24, 6-(4-Chloro-3-phenoxy-benzyl)-4,5-dihydro-2H-pyridazin-3-one]
IC50 (HIV-1 RT; TABLE I): 2630 nM

C[C@H]1NC(Cc2ccc(Br)c(Oc3cc(C#N)cc(C(F)F)c3)c2F)=NNC1=O [Compound I-25, 3-[6-Bromo-2-fluoro-3-((R)-5-methyl-6-oxo-1,4,5,6-tetrahydro-[1,2,4]triazin-3-ylmethyl)-phenoxy]-5-difluoromethyl-benzonitrile]
melting point: 231.5 to 233 °C
IC50 (HIV-1 RT; TABLE I): 11.7 nM

C[C@H]1NC(Cc2ccc(Br)c(Oc3cc(Cl)cc(C#N)c3)c2F)=NNC1=O [Compound I-26]
melting point: 178.2 to 179 °C
IC50 (HIV-1 RT; TABLE I): 6.6 nM

CC1(C)NC(Cc2ccc(Cl)c(Oc3cc(Cl)cc(C#N)c3)c2F)=NNC1=O [Compound I-27]
IC50 (HIV-1 RT; TABLE I): 7070 nM

N#Cc1cc(Cl)cc(Oc2c(Cl)ccc(CC3=NNC(=O)CN3)c2F)c1 [Compound I-28]
melting point: 177.6 to 178 °C
IC50 (HIV-1 RT; TABLE I): 143 nM

N#Cc1cc(Cl)cc(Oc2c(Cl)ccc(CC3=NNC(=O)C(C(F)(F)F)N3)c2F)c1 (centres unmarked) [Compound I-29]
IC50 (HIV-1 RT; TABLE I): 26.9 nM

N#Cc1cc(Cl)cc(Oc2c(Cl)ccc(CC3=NNC(=O)[C@@H](CO)N3)c2F)c1 [Compound I-30]
melting point: 112.5 to 114 °C
IC50 (HIV-1 RT; TABLE I): 418 nM

Cc1nc(Cc2ccc(Cl)c(Oc3cccc(Br)c3)c2)n[nH]c1=O [II-1]
IC50 (HIV-1 RT; TABLE II): 331 nM

Cc1nc(Cc2ccc(Cl)c(Oc3cccc(C#N)c3)c2)n[nH]c1=O [II-2, 3-[2-Chloro-5-(5-methyl-6-oxo-1,6-dihydro-[1,2,4]triazin-3-ylmethyl)-phenoxy]-benzonitrile]
melting point: 145.3 to 145.8 °C
IC50 (HIV-1 RT; TABLE II): 206 nM

O=c1[nH]nc(Cc2ccc(Cl)c(Oc3cccc(Br)c3)c2)nc1-c1ccccc1 [II-3, 3-[3-(3-Bromo-phenoxy)4-chloro-benzyl]-5-phenyl-1H-[1,2,4]triazin-6-one]
melting point: 59.8 to 63.9 °C
IC50 (HIV-1 RT; TABLE II): 346 nM

Cc1nc(Cc2ccc(Cl)c(Oc3cc(Br)cc(Br)c3)c2F)n[nH]c1=O [II-4, 3-[4-Chloro-3-(3,5-dibromo-phenoxy)-2-fluoro-benzyl]-5-methyl-1H-[1,2,4]triazin-6-one]
melting point: 180.9 to 183.3 °C
IC50 (HIV-1 RT; TABLE II): 137 nM

Cc1nc(Cc2ccc(Cl)c(Oc3cc(C#N)cc(C#N)c3)c2F)n[nH]c1=O [II-5, 5-[6-chloro-2-fluoro-3-(5-methyl-6-oxo-1,6-dihydro-[1,2,4]triazin-3-ylmethyl)-phenoxy]-isophthalonitrile]
melting point: 194.7 to 197.4 °C
IC50 (HIV-1 RT; TABLE II): 432 nM

Cc1nc(Cc2ccc(Cl)c(Oc3cc(Br)cc(C#N)c3)c2F)n[nH]c1=O [II-6, 3-Bromo-5-[6-chloro-2-fluoro-3-(5-methyl-6-oxo-1,6-dihydro-[1,2,4]triazin-3-ylmethyl)-phenoxy]-benzonitrile]
IC50 (HIV-1 RT; TABLE II): 32.5 nM
